According to publication PMC8232704, “Hydrophobic Tagging-Mediated Degradation of Transcription Coactivator SRC-1” (International Journal of Molecular Sciences, 2021):
Bridge positions count the residues as written; N and C are the ends. Square brackets hold non-standard residues; d marks the D form. Peptide text beside a SMILES is read from it. N(1-adamantyl)Gly = O=C(O)CNC12CC3CC(CC(C3)C1)C2; Cha = N[C@@H](CC1CCCCC1)C(=O)O; S5 = C=CCCC[C@](C)(N)C(=O)O; PEG2 = NCCOCCOCCC(=O)O; PEG1 = NCCOCCC(=O)O; Ahx = NCCCCCC(=O)O; Ava = NCCCCC(=O)O; GABA = NCCCC(=O)O

Legend:
[1] = molecular target: T1, SRC-1 in MDA-MB-231 cells (Homo sapiens, UniProt Q15788); assay: Immunoblot analysis of cellular SRC-1 levels (SRC-1 degradation); type: cell-based; conditions: MDA-MB-231 cells, 18 h; for SRC-1 (%): normalized to GAPDH and DMSO controls
T1 construct: endogenous in cells; host or cells: MDA-MB-231
T1 sequence (Q15788 whole entry): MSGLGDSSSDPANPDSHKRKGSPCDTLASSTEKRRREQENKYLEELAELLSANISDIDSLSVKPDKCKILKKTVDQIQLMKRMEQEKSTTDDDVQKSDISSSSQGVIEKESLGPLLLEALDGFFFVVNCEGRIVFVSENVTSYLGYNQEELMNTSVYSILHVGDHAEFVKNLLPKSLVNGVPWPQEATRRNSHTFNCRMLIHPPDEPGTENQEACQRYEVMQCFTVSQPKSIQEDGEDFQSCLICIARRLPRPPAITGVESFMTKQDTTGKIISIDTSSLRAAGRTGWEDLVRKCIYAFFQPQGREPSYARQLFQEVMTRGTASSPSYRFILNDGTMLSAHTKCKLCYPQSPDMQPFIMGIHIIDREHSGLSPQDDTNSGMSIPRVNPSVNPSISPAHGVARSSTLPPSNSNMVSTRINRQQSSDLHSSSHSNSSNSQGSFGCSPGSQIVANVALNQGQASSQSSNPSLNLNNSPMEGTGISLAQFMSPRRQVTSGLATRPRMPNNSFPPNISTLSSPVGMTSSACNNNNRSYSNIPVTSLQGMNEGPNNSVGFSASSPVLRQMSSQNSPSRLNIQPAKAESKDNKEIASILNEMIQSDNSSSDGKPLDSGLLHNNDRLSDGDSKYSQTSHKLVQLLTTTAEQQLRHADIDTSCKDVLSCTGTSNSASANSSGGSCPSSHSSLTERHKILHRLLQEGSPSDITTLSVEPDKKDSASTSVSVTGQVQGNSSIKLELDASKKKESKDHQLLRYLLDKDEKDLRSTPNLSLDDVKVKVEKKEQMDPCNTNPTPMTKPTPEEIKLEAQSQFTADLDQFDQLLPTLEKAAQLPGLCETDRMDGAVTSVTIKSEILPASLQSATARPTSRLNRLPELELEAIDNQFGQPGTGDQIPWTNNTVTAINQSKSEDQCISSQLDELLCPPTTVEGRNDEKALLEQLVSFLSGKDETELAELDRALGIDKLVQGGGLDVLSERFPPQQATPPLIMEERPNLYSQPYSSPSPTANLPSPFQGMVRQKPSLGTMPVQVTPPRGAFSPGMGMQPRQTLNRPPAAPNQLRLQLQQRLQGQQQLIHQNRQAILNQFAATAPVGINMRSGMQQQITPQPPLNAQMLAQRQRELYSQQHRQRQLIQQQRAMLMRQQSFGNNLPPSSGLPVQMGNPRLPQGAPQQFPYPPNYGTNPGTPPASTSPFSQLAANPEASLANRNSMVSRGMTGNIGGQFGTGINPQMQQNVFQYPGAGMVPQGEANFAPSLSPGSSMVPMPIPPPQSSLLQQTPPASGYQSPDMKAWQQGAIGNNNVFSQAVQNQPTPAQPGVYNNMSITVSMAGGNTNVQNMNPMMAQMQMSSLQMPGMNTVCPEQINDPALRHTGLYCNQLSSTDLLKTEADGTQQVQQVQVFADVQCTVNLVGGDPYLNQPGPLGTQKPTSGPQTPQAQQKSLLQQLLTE
Method: MDA-MB-231 and HEK293T cells were cultured in a medium containing Dulbecco’s modified eagle medium (DMEM) supplemented with 1% penicillin–streptomycin (PS) and 10% FBS with 5% CO2 at 37 °C.
MDA-MB-231 cells were seeded into 6-well pates (Corning, 3506) at a density of 6 × 10^5 cell per well. After incubation at 37 °C for 24 h, cells were treated with synthesized compounds in Opti-MEM medium for 12, 18, or 24 h. Cells were washed twice with cold Dulbecco’s phosphate-buffered saline (DPBS) prior to cell lysis using a cell lysis buffer (1% Triton X-100, 150 mM NaCl, 50 mM Tris-HCl pH 7.6, 0.1% SDS, 0.5% sodium deoxycholate, and 1 × protease inhibitor cocktail) on ice. Cell lysates were centrifuged at 13,000 rpm at 4 °C for 15 min. The supernatant was collected, and protein concentration was determined using Pierce^TM 660nm protein assay. A 6 × SDS loading buffer was added to the cell lysate and incubated at 95 °C for 5 min. The same amount of protein was subjected to SDS-PAGE and transferred to PVDF membranes. After blocking membranes with 5% skim milk in TBST (Tris-buffered saline with 0.05% Tween 20), membranes were incubated with a primary antibody at 4 °C overnight. Membranes were then incubated with HRP-linked secondary antibody at rt for 1 h and developed with Pico ECL solution. In MG-132 and 17-AAG treatment experiments, MDA-MB-231 cells were cotreated with synthesized compounds and MG-132 (5 μM) or 17-AAG (1 μM) at 37 °C for 18 h.

[2] = Circular dichroism (CD), calculated helicity; type: physicochemical; conditions: 50 μM peptide in 30% PBS (pH 7.4) and 70% acetonitrile, calculated from CD spectra
Method: Lyophilized compounds (YL2 and YL2-HyT1 through YL2-HyT6) were dissolved in 30% PBS (pH 7.4) and 70% acetonitrile solution to a final concentration of 50 μM. CD spectra were measured with a Jasco J-815 CD spectropolarimeter using a quartz cuvette (2 mm path length). These spectra were averages of five successive accumulations with a scan rate of 100 nm/min. Raw data were converted in terms of per-residue molar ellipticity (deg·cm^2·dmol^−1·residue^−1) as calculated per mole of amide groups present and normalized by the molar concentration of peptides. Smoothing and correction of background spectra were performed with Origin Pro 8.0 (OriginLab Corporation, Northampton, MA, USA). Then α-helical propensities of YL2 and YL2-HyT1 through YL2-HyT6 were calculated as previously reported.

[3] = molecular target: T2, PAS-B domain of human SRC-1 (residues 257–385) (Homo sapiens, UniProt Q15788); assay: Competitive fluorescence polarization (FP) assay, fluorescein-labeled STAT-6 peptide binding to SRC-1; conditions: 100 nM fluorescein-labeled 15-mer STAT-6 peptide, 1 μM PAS-B domain of SRC-1, HEPES pH 7.4, SD from three independent experiments
T2 construct: PAS-B domain of human SRC-1 (residues 257–385); His6; made in house; host or cells: Rosetta E. coli
T2 sequence (Q15788 257-385): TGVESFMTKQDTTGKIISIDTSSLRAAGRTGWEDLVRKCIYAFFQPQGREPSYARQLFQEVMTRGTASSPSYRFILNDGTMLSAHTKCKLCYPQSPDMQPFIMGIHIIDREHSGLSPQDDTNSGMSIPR
Method: A plasmid expressing the PAS-B domain of human SRC-1 (residues 257–385) tagged with His6 was provided by John A. Robinson (University of Zürich at Switzerland). It was transformed into Rosetta E. coli cells. SRC-1 protein purification was performed as described previously.
After incubating 100 nM of fluorescein-labeled 15-mer STAT-6 peptide with 1 μM of PAS-B domain of SRC-1 in a binding buffer (50 mM HEPES pH 7.4, 150 mM NaCl, 3.4 mM EDTA, and 0.01% Tween 20) in a black Greiner 384-well plate for 30 min, indicated concentrations of YL2 and YL2-HyT1 through YL2-HyT6 were added to each well. After incubation for another 1.5 h, fluorescence polarization was measured on a Tecan Infinite F200 Pro microplate reader (excitation wavelength: 485 nm, emission wavelength: 535 nm). The Ki values of the compounds in the competition assay were determined using the following equation [43]. (1) Ki=[I]50/[L]50/KD+[P]0/KD+1 where [I]50 is the concentration of the free inhibitor at 50% inhibition, KD is the dissociation constant of the protein–ligand complex, [L]50 is the concentration of the free labeled ligand at 50% inhibition, and [P]0 is the concentration of the free protein at 0% inhibition.

[4] = system: CSF-1 mRNA in MDA-MB-231 cells; assay: RT-qPCR of CSF-1 mRNA; type: cell-based, human; conditions: 18 h, RT-qPCR normalized to 18S
Method: (§1) Quantitative real-time PCR was performed for CSF-1, E-cadherin, and 18S (as a reference gene) mRNAs. MDA-MB-231 cells (1.2 × 10^5 cells/well) were seeded into a 12-well plate and incubated at 37 °C with 5% CO2 for 24 h. These cells were treated with indicated compounds (YL2, adamantane, ND1-YL2, or YL2-HyT6) for 18 h in Opti-MEM medium. After cells were washed with cold DPBS, mRNAs were isolated from these cells using an AccuPrep Universal RNA extraction kit (Bioneer, Daejeon, Korea). Then 1.5 µg of mRNAs were reverse-transcribed using AccuPower RocketScript Cycle RT PreMix (Bioneer) to generate complementary DNAs. RT-qPCR for CSF-1, E-cadherin, and 18S was performed with a StepOnePlus Real-Time PCR System (Applied Biosystems, Waltham, MA, USA) and SYBR Green mix (Applied Biosystems) according to the manufacturer’s instructions with gene-specific primers (Table 1).

[5] = design: method as in PMID 29090910; conditions: compared with the corresponding native peptide sequence; cited from earlier work
[6] = system: E-cadherin mRNA in MDA-MB-231 cells; assay: RT-qPCR of E-cadherin mRNA; type: cell-based, human; conditions: 18 h, RT-qPCR normalized to 18S
Method: as §1

[7] = design: method as in PMID 29090910; conditions: cited from earlier work
[8] = molecular target: SRC-1; conditions: in vitro binding activity; cited from earlier work
Text: The SRC-1 degrader ND1-YL2 is a chimeric molecule composed of a ligand (YL2) for SRC-1 [31] and a UBR E3 ligase binder (Figure 2). […] ND1-YL2 was generated by conjugating a tetrapeptide RLAA, the N-degron peptide as a binder for UBR. Thus, this bifunctional molecule enables the recruitment of SRC-1 to UBR protein, thereby promoting the formation of a ternary complex for polyubiquitination and proteasomal degradation of SRC-1.

[9] = system: SRC-1; conditions: stapled peptide lacking the hydrophobic tag; cited from earlier work
Method: Cellular levels of SRC-1 were analyzed at various time points (12, 18, and 24 h) by immunoblotting.

SMILES	SRC-1 (%) ([1]; 10 μM compound)	SRC-1 (%) ([1]; 20 μM compound)	SRC-1 (%) ([1]; 50 μM compound)	Helicity (%) [2] [%]	Ki [3] [nM]	SRC-1 degradation (immunoblot) ([1]; 20 μM)	CSF-1 mRNA expression level [4]	Proteolytic resistance [5]	E-cadherin mRNA expression level [6]	Cell penetration ability [7]	Ki [8] [nM]	SRC-1 degradation [9]
CC(C)C[C@@H]1NC(=O)[C@H](CCCCN)NC(=O)[C@@](C)(NC(=O)[C@H](CC(C)C)NC(=O)[C@H](CC(=O)O)NC(=O)[C@H](CCC(N)=O)NC(=O)[C@H](CCC(=O)O)NC(=O)[C@@H](NC(=O)[C@@H]2CCCN2C(=O)[C@@H]2CCCN2C(=O)[C@H](CC(C)C)NC(=O)[C@@H](N)CC(C)C)[C@@H](C)O)CCC/C=C\CCC[C@@](C)(C(=O)N[C@@H](Cc2ccc(O)cc2)C(N)=O)NC(=O)[C@H](CC2CCCCC2)NC1=O [YL2] (H-LLPPTEQDL[S5]KL[Cha][S5]Y-NH2; staple (Z) 10-14; N-terminus assumed)				32.5			no effect	increased proteolytic resistance	no effect	reasonable cell penetration ability	140	unable to induce SRC-1 degradation
C1C2CC3CC1CC(C2)C3 [adamantane]						no effect	no effect		no effect			
CC(C)C[C@H](NC(=O)CCCCNC(=O)CNC12CC3CC(CC(C3)C1)C2)C(=O)N[C@@H](CC(C)C)C(=O)N1CCC[C@H]1C(=O)N1CCC[C@H]1C(=O)N[C@H](C(=O)N[C@@H](CCC(=O)O)C(=O)N[C@@H](CCC(N)=O)C(=O)N[C@@H](CC(=O)O)C(=O)N[C@@H](CC(C)C)C(=O)N[C@@]1(C)CCC/C=C\CCC[C@@](C)(C(=O)N[C@@H](Cc2ccc(O)cc2)C(N)=O)NC(=O)[C@H](CC2CCCCC2)NC(=O)[C@H](CC(C)C)NC(=O)[C@H](CCCCN)NC1=O)[C@@H](C)O [YL2-HyT2] (H-[N(1-adamantyl)Gly][Ava]LLPPTEQDL[S5]KL[Cha][S5]Y-NH2; staple (Z) 12-16; C-terminus assumed)	92	85	66	18.7	1520 ± 87							

Further lines, with some results ahead:

SRC-1 (%) ([1]; 10 μM compound)	SRC-1 (%) ([1]; 20 μM compound)	SRC-1 (%) ([1]; 50 μM compound)	Helicity (%) [2] [%]	Ki [3] [nM]	SRC-1 degradation (immunoblot) ([1]; 20 μM)	SMILES	CSF-1 mRNA expression level [4]	Proteolytic resistance [5]	E-cadherin mRNA expression level [6]	Cell penetration ability [7]	Ki [8] [nM]	SRC-1 degradation [9]
83	53	70	29.9	484 ± 52		CC(C)C[C@H](NC(=O)CCOCCNC(=O)CNC12CC3CC(CC(C3)C1)C2)C(=O)N[C@@H](CC(C)C)C(=O)N1CCC[C@H]1C(=O)N1CCC[C@H]1C(=O)N[C@H](C(=O)N[C@@H](CCC(=O)O)C(=O)N[C@@H](CCC(N)=O)C(=O)N[C@@H](CC(=O)O)C(=O)N[C@@H](CC(C)C)C(=O)N[C@@]1(C)CCC/C=C\CCC[C@@](C)(C(=O)N[C@@H](Cc2ccc(O)cc2)C(N)=O)NC(=O)[C@H](CC2CCCCC2)NC(=O)[C@H](CC(C)C)NC(=O)[C@H](CCCCN)NC1=O)[C@@H](C)O [YL2-HyT4] (H-[N(1-adamantyl)Gly][PEG1]LLPPTEQDL[S5]KL[Cha][S5]Y-NH2; staple (Z) 12-16; C-terminus assumed)						
98	99	91	24.1	1080 ± 32		CC(C)C[C@H](NC(=O)CCCNC(=O)CNC12CC3CC(CC(C3)C1)C2)C(=O)N[C@@H](CC(C)C)C(=O)N1CCC[C@H]1C(=O)N1CCC[C@H]1C(=O)N[C@H](C(=O)N[C@@H](CCC(=O)O)C(=O)N[C@@H](CCC(N)=O)C(=O)N[C@@H](CC(=O)O)C(=O)N[C@@H](CC(C)C)C(=O)N[C@@]1(C)CCC/C=C\CCC[C@@](C)(C(=O)N[C@@H](Cc2ccc(O)cc2)C(N)=O)NC(=O)[C@H](CC2CCCCC2)NC(=O)[C@H](CC(C)C)NC(=O)[C@H](CCCCN)NC1=O)[C@@H](C)O [YL2-HyT1] (H-[N(1-adamantyl)Gly][GABA]LLPPTEQDL[S5]KL[Cha][S5]Y-NH2; staple (Z) 12-16; C-terminus assumed)						
78	95	57	27.2	549 ± 17		CC(C)C[C@H](NC(=O)CCOCCOCCNC(=O)CNC12CC3CC(CC(C3)C1)C2)C(=O)N[C@@H](CC(C)C)C(=O)N1CCC[C@H]1C(=O)N1CCC[C@H]1C(=O)N[C@H](C(=O)N[C@@H](CCC(=O)O)C(=O)N[C@@H](CCC(N)=O)C(=O)N[C@@H](CC(=O)O)C(=O)N[C@@H](CC(C)C)C(=O)N[C@@]1(C)CCC/C=C\CCC[C@@](C)(C(=O)N[C@@H](Cc2ccc(O)cc2)C(N)=O)NC(=O)[C@H](CC2CCCCC2)NC(=O)[C@H](CC(C)C)NC(=O)[C@H](CCCCN)NC1=O)[C@@H](C)O [YL2-HyT5] (H-[N(1-adamantyl)Gly][PEG2]LLPPTEQDL[S5]KL[Cha][S5]Y-NH2; staple (Z) 12-16; C-terminus assumed)						
73	58	50	24.9	681 ± 54		CC(C)C[C@H](NC(=O)CCCCCNC(=O)CNC12CC3CC(CC(C3)C1)C2)C(=O)N[C@@H](CC(C)C)C(=O)N1CCC[C@H]1C(=O)N1CCC[C@H]1C(=O)N[C@H](C(=O)N[C@@H](CCC(=O)O)C(=O)N[C@@H](CCC(N)=O)C(=O)N[C@@H](CC(=O)O)C(=O)N[C@@H](CC(C)C)C(=O)N[C@@]1(C)CCC/C=C\CCC[C@@](C)(C(=O)N[C@@H](Cc2ccc(O)cc2)C(N)=O)NC(=O)[C@H](CC2CCCCC2)NC(=O)[C@H](CC(C)C)NC(=O)[C@H](CCCCN)NC1=O)[C@@H](C)O [YL2-HyT3] (H-[N(1-adamantyl)Gly][Ahx]LLPPTEQDL[S5]KL[Cha][S5]Y-NH2; staple (Z) 12-16; C-terminus assumed)						
